Holding throughout (format): in vivo
Assay [1] relates to Erysiphe graminis f.sp. hordei. In words: Erysiphe test (barley)/protective. The settings on record: Blumeria graminis, 168 h, protective, application rate 12.5 g/ha, evaluation 7 days after inoculation, read-out: Efficacy in %. On the procedure:
Erysiphe Test (Barley)/Protective
(§1) To produce a suitable preparation of active compound, 1 part by weight of active compound or active compound combination is mixed with the stated amounts of solvent and emulsifier, and the concentrate is diluted with water to the desired concentration.
(§2) To test for protective activity, young plants are sprayed with the preparation of active compound at the stated application rate.
After the spray coating has dried on, the plants are dusted with spores of Erysiphe graminis f.sp. hordei.
(§3) The plants are placed in a greenhouse at a temperature of approximately 20° C. and a relative atmospheric humidity of approximately 80% to promote the development of mildew postules.
(§4) Evaluation is carried out 7 days after the inoculation. 0% means an efficacy which corresponds to that of the control, whereas an efficacy of 100% means that no infection is observed.

Another assay concerns Leptosphaeria nodorum. In words: Leptosphaeria nodorum test (wheat)/protective. The settings on record: protective, application rate 25 g/ha, evaluation 10 days after inoculation. On the procedure:
Leptosphaeria nodorum Test (Wheat)/Protective
To produce a suitable preparation of active compound, 1 part by weight of active compound or active compound combination is mixed with the stated amounts of solvents and emulsifier, and the concentrate is diluted with water to the desired concentration.
To test for protective activity, young plants are sprayed with the preparation of active compound at the stated application rate. After the spray coating has dried on, the plants are sprayed with a spore suspension of Leptosphaeria nodorum. The plants remain in an incubation cabin at 20° C. and 100% relative atmospheric humidity for 48 hours.
The plants are placed in a greenhouse at a temperature of approximately 15° C. and a relative atmospheric humidity of 80%.
Evaluation is carried out 10 days after the inoculation. 0% means an efficacy which corresponds to that of the control, whereas an efficacy of 100% means that no infection is observed.

The next assay deals with Phytophthora infestans. The assay can be described thus: whole plant or invertebrate. Conditions: Phytophthora infestans, in Solanum lycopersicum, 72 h, read-out: % Efficacy.
Assay [2] has as its system Erysiphe graminis f.sp. tritici. In words: Erysiphe test (wheat)/protective. The settings on record: protective, application rate 6.25 g/ha, evaluation 7 days after inoculation. On the procedure:
Erysiphe Test (Wheat)/Protective
as §1, §2
After the spray coating has dried on, the plants are dusted with spores of Erysiphe graminis f.sp. tritici.
as §3, §4

The subject of the next assay is Pyrenophora teres. In words: Pyrenophora teres test (barley)/protective. Conditions: protective, application rate 25 g/ha, evaluation 7 days after inoculation. On the procedure: Pyrenophora teres Test (Barley)/Protective
as §1
To test for protective activity, young plants are sprayed with the preparation of active compound at the stated application rate. After the spray coating has dried on, the plants are sprayed with a conidia suspension of Pyrenophora teres. The plants remain in an incubation cabin at 20° C. and 100% relative atmospheric humidity for 48 hours.
The plants are then placed in a greenhouse at a temperature of approximately 20° C. and a relative atmospheric humidity of approximately 80%.
as §4

The next assay has as its system Sphaerotheca fuliginea. In words: whole plant or invertebrate. The settings on record: Podosphaera fuliginea, in Cucumis sativus, 240 h, read-out: % Efficacy.

As to `CNC(=O)/C(=N/OC)c1ccccc1Oc1ncnc(Oc2cccc(Cl)c2C)c1F` [Compound of the formula (I), (2E/Z)-2-(2-{[6-(3-chloro-2-methylphenoxy)-5-fluoro-4-pyrimidinyl]oxy}phenyl)-2-(methoxyimino)-N-methylethanamide], the pest or weed control at 12.5 g/ha in assay [1] turned out to be 80%. Further, the figures for the Efficacy in % (in the assay on Leptosphaeria nodorum; in assay [2]; with Pyrenophora teres) were 60%, 0% and 60%, respectively. The pest or weed control at 0.5 g/ha with Phytophthora infestans is 32%; in the assay on Sphaerotheca fuliginea, 30%. Also, the pest or weed control at 1 g/ha turned out to be 60% in the assay with Phytophthora infestans and 69% with Sphaerotheca fuliginea. For the same compound, in the assay on Phytophthora infestans, the pest or weed control at 2 g/ha came to 72%.
As for `OC(Cc1ccccc1Cl)(Cn1nc[nH]c1=S)C1(Cl)CC1` (stereo not shown) [Compound of the formula (LXX) (69), 2-(1-chloro-cyclopropyl)-1-(2-chlorophenyl)-3-(5-mercapto-1,2,4-triazol-1-yl)-propan-2-ol], in assay [1], the pest or weed control at 12.5 g/ha was 90%. In addition, the pest or weed control at 5 g/ha in the assay on Phytophthora infestans was 0%. In addition, the Efficacy in % with Pyrenophora teres is listed as 70%.
Consider `Cc1noc(C)c1S(=O)(=O)n1c(Cl)nc2cc3c(cc21)OC(F)(F)O3` [Compound of the formula (LXXI) (70), 1-(3,5-dimethylisoxazole-4-sulphonyl)-2-chloro-6,6-difluoro-[1,3]-dioxolo-[4,5f]benzimidazole], for which the pest or weed control at 12.5 g/ha in assay [1] turned out to be 0%. Also, the Efficacy in % with Leptosphaeria nodorum came to 0%. In addition, in the assay on Sphaerotheca fuliginea, the pest or weed control at 1 g/ha worked out at 0%.
Regarding `CO/N=C(/C1=NOCCO1)c1ccccc1Oc1ncnc(Oc2ccccc2Cl)c1F` [Compound of the formula (LXXII) (71)], the pest or weed control at 12.5 g/ha in assay [1] turned out to be 0%. Further, the Efficacy in % with Leptosphaeria nodorum was 40%. Also, the pest or weed control at 2 g/ha with Sphaerotheca fuliginea was found to be 43%.
Consider `Cc1cc(C2CC2)nc(Nc2ccccc2)n1` [cyprodinil (XVIII) (17), cyprodinil], for which the pest or weed control at 12.5 g/ha in assay [1] was determined as 0%. Besides, the Efficacy in % with Pyrenophora teres is 0%. The pest or weed control at 10 g/ha in the assay on Sphaerotheca fuliginea is 22%.
As to `CC1COC(Cn2cncn2)(c2ccc(Oc3ccc(Cl)cc3)cc2Cl)O1` (stereo not shown) [difenoconazole], the pest or weed control at 5 g/ha in the assay on Phytophthora infestans stood at 5%; with Sphaerotheca fuliginea, 14%.
Take `COc1ccc(C(=CC(=O)N2CCOCC2)c2ccc(Cl)cc2)cc1OC` [dimetomorph (XLV) (44), dimetomorph]: the pest or weed control at 1 g/ha was 23% with Phytophthora infestans and 0% in the assay with Sphaerotheca fuliginea.
In the case of `Fc1ccc(C2(Cn3cncn3)OC2c2ccccc2Cl)cc1` (stereo not shown) [epoxiconazole (XI) (10), epoxiconazole], the Efficacy in % in assay [2] is on record as 70%; in the assay with Pyrenophora teres, 60%.
Consider `CSC1=N[C@@](C)(c2ccccc2)C(=O)N1Nc1ccccc1` [fenamidone], for which the figures for the pest or weed control at 0.5 g/ha in the assay with Phytophthora infestans and in the assay with Sphaerotheca fuliginea were 48% and 0%, respectively.
As for `O=[N+]([O-])c1cc(C(F)(F)F)c(Cl)c([N+](=O)[O-])c1Nc1ncc(C(F)(F)F)cc1Cl` [fluazinam], the pest or weed control at 2.5 g/ha in the assay with Phytophthora infestans was 32%; in the assay on Sphaerotheca fuliginea, 0%.
Turning to `N#Cc1c[nH]cc1-c1cccc2c1OC(F)(F)O2` [fludioxonil (XXX) (29), fludioxonil], the pest or weed control at 12.5 g/ha in assay [1] stood at 0%. In addition, in the assay with Sphaerotheca fuliginea, the pest or weed control at 2.5 g/ha turned out to be 0%.
In the case of `O=[N+]([O-])/N=C1\NCCN1Cc1ccc(Cl)nc1` [imidacloprid (XXIV) (23), 1-[(6-chloro-3-pyridinyl)-methyl]-N-nitro-2-imidazolidinimine], the pest or weed control at 12.5 g/ha in assay [1] was 0%.
Regarding `Cc1ccc(C(C)NC(=O)[C@@H](NC(=O)OC(C)C)C(C)C)cc1` (stereo partly shown) [iprovalicarb (LI) (50), iprovalicarb], the pest or weed control at 0.5 g/ha with Phytophthora infestans worked out at 2%. The pest or weed control at 2 g/ha in the assay with Sphaerotheca fuliginea is 0%.
`CO/N=C(/C(=O)OC)c1ccccc1COc1ccccc1C` [kresoxim-methyl (XVI) (15), kresoxim-methyl]: the pest or weed control at 1 g/ha in the assay on Phytophthora infestans stood at 35%. For the same compound, in the assay on Sphaerotheca fuliginea, the pest or weed control at 2 g/ha amounted to 0%.
`CC#Cc1cc(C)nc(Nc2ccccc2)n1` [mepanipyrim (L) (49), mepanipyrim]: in the assay with Phytophthora infestans, the pest or weed control at 5 g/ha was found to be 0%. In addition, the pest or weed control at 10 g/ha in the assay on Sphaerotheca fuliginea was determined as 11%.
Consider `CC1(C)CCC(Cc2ccc(Cl)cc2)C1(O)Cn1cncn1` (stereo not shown) [metconazole (XII) (11), metconazole], for which the Efficacy in % in assay [2] is 50%.
Take `O=C(Nc1ccccc1)N(Cc1ccc(Cl)cc1)C1CCCC1` [pencycuron (XXXVIII) (37), pencycuron]: the pest or weed control at 12.5 g/ha in assay [1] was found to be 50%. In addition, the pest or weed control at 10 g/ha in the assay on Phytophthora infestans was 14%. In addition, in the assay on Sphaerotheca fuliginea, the pest or weed control at 5 g/ha turned out to be 30%.
As for `Cc1cc(C)nc(Nc2ccccc2)n1` [pyrimethanil (XLIX)(48), pyrimethanil], the pest or weed control at 10 g/ha with Phytophthora infestans is 11%. Besides, in the assay with Sphaerotheca fuliginea, the pest or weed control at 5 g/ha came to 11%.
As for `CCCN(CC)CC1COC2(CCC(C(C)(C)C)CC2)O1` (stereo not shown) [spiroxamine (II) (1), 8-t-butyl-2-(N-ethyl-N-n-propyl-amino)-methyl-1,4-dioxaspiro-[5,4]-decane], the pest or weed control at 10 g/ha in the assay on Phytophthora infestans was 0%. Further, in the assay on Sphaerotheca fuliginea, the pest or weed control at 5 g/ha stood at 0%.
Turning to `S1SSSSSSS1` [sulphur (LXII) (62), sulphur], the pest or weed control at 25 g/ha in the assay on Phytophthora infestans and in the assay with Sphaerotheca fuliginea was 0% each time.
As to `CC(C)(C)C(O)(CCc1ccc(Cl)cc1)Cn1cncn1` (stereo not shown) [tebuconazole (IV) (3), tebuconazole], the Efficacy in % in the assay on Leptosphaeria nodorum came out at 50%; in the assay on Pyrenophora teres it was 0%. For the same compound, the pest or weed control at 2.5 g/ha in the assay with Sphaerotheca fuliginea stood at 0%.
For `CC(C)(C)C(O)C(Oc1ccc(Cl)cc1)n1cncn1` (stereo not shown) [triadimenol (X) (9), 1-(4-chloro-phenoxy)-3,3-dimethyl-1-(1,2,4-triazol-1-yl)-butan-2-ol], the pest or weed control at 5 g/ha in the assay with Phytophthora infestans came out at 0%. The Efficacy in % in the assay with Pyrenophora teres worked out at 30%. Further, the pest or weed control at 2.5 g/ha in the assay on Sphaerotheca fuliginea came out at 0%.
On to `CCC(C)(NC(=O)c1cc(Cl)c(C)c(Cl)c1)C(=O)CCl` (stereo not shown) [zoxamide (LXXIII)(72), zoxamide], for which the figures for the pest or weed control at 1 g/ha in the assay on Phytophthora infestans and in the assay with Sphaerotheca fuliginea were 19% and 0%, respectively.

The values above are taken from patent US20030229087A1 (priority 2002, published 2003).
